Measured values: patent US8835377B2, “Oral delivery of peptide pharmaceutical compositions” (UGP Therapeutics, Inc., priority 2004, dated 2014)

Test: Pharmacokinetics after oral capsules (sCT plus Dmt-DALDA with citric acid and lauroyl carnitine), non-enteric coated or enteric coated, in fasted beagle dogs (plasma; ELISA for sCT, HPLC-MS for Dmt-DALDA)
Format: in vivo
Settings: for AUC / Cmax: normalized to a 1 mg dose; for Tmax / Cmax: beagle, dog, plasma, oral; for plasma peptide concentration normalized to a 1 mg dose: enteric coated capsule
Description: A second series of tests was carried out, as noted above, using beagle dogs. […] In the experiments represented in FIGS. 2A and 2B, size 00 […] capsules were each filled with 758 mg of a powdered blend consisting of citric acid (643 mg), lauroyl carnitine (66 mg), talc (33 mg), salmon calcitonin (sCT) (13 mg) and Dmt-DALDA (2.4 mg). Half of the capsules were coated with an enteric coating solution of L30D-55, while the remaining 50% of the capsules were not coated. Four fasted dogs were each given 1 uncoated capsule, and 2 weeks later they were each given an enteric coated capsule. After administration of each capsule, samples of blood were taken at 15 minute intervals from an indwelling catheter for up to 4 hours. The blood samples were centrifuged and the resulting plasma supernatants were stored frozen at −20° C. The plasma samples were subsequently analyzed for sCT by a direct ELISA, and for Dmt-DALDA by HPLC-mass spectrometry performed as set forth in Wan, H. and Desiderio, D., Quantitation of [DMT^1] DALDA in ovine plasma by on-line liquid chromatography/quadrapole time-of-flight mass spectrometry, Rapid Communications in Mass Spectrometry, 2003; 17, 538-546, the contents of which are incorporated herein by reference.
The results summarized in FIGS. 2A and 2B as plasma peptide concentration normalized to a 1 mg dose as a function of time relative to the average Tmax, (i.e., the time at which the maximum amount of peptide was detected) indicate that both peptides, i.e., sCT and Dmt-DALDA, were detected in dogs given uncoated or enteric coated capsules. […] Table DI (below) sets forth the values upon which the curves in FIGS. 2A and 2B are based. The results are summarized in the tables as plasma peptide concentration normalized to a 1 mg dose as a function of time. Table III, moreover, provides the standard deviations for the data obtained regarding each of the test dogs, which standard deviations are also indicated in FIGS. 2A and 2B.
Table IV (below) summarizes the pharmacokinetic parameters in dogs of orally administered sCT and Dmt-DALDA when administered in non-enteric coated versus enteric coated capsules. Peptide was not detected from 1 dog in each group due to (a) Dog 3 vomiting the uncoated capsule and (b) delayed gastric emptying in Dog 2 provided with an enteric coated capsule. Cmax and AUC are as defined with regard to Table H above.

[1] = Non-Enteric Capsule, Avg (n = 3)

Cc1cc(O)cc(C)c1C[C@H](N)C(=O)N[C@H](CCCNC(=N)N)C(=O)N[C@@H](Cc1ccccc1)C(=O)N[C@@H](CCCCN)C(N)=O [Dmt-DALDA, H-2,6-dimethyltyrosine-D-Arginine-Phenylalanine-Lysine-NH2]
AUC (Enteric Capsule, Avg (n = 3)): 1443143 pg/mL-min | AUC (Enteric Capsule, Dog 1): 2375695 pg/mL-min | AUC (Enteric Capsule, Dog 2 (delayed gastric emptying)): 0 pg/mL-min | AUC (Enteric Capsule, Dog 3): 1185373 pg/mL-min | AUC (Enteric Capsule, Dog 4): 768361 pg/mL-min | AUC [1]: 542977 pg/mL-min | AUC (Non-Enteric Capsule, Dog 1): 410944 pg/mL-min | AUC (Non-Enteric Capsule, Dog 2): 707054 pg/mL-min | AUC (Non-Enteric Capsule, Dog 3 (vomited capsule)): 0 pg/mL-min | AUC (Non-Enteric Capsule, Dog 4): 510934 pg/mL-min | Tmax (Enteric Capsule, Avg (n = 3)): 100 min | Cmax (Enteric Capsule, Avg (n = 3)): 21 ng/mL | Tmax (Enteric Capsule, Dog 1): 45 min | Cmax (Enteric Capsule, Dog 1): 29.4 ng/mL | Tmax (Enteric Capsule, Dog 3): 135 min | Cmax (Enteric Capsule, Dog 3): 21.5 ng/mL | Tmax (Enteric Capsule, Dog 4): 120 min | Cmax (Enteric Capsule, Dog 4): 12.1 ng/mL | Tmax [1]: 40 min | Cmax [1]: 5.79 ng/mL | Tmax (Non-Enteric Capsule, Dog 1): 45 min | Cmax (Non-Enteric Capsule, Dog 1): 5.1 ng/mL | Tmax (Non-Enteric Capsule, Dog 2): 30 min | Cmax (Non-Enteric Capsule, Dog 2): 6.47 ng/mL | Tmax (Non-Enteric Capsule, Dog 4): 45 min | Cmax (Non-Enteric Capsule, Dog 4): 5.79 ng/mL | Cmax and AUC, enteric coated capsules versus non enteric-coated capsules (dogs): significantly enhanced | Cmax of enteric coated relative to non enteric coated (dogs): 4 fold | amount of peptide detected in plasma, enteric coated capsules vs non-coated capsules (dogs): nearly four times as much | time at which the maximum concentration was seen (dogs given coated capsules): 105 min | amount of Dmt-DALDA detected relative to sCT (dogs given enteric coated capsules): nearly equal amounts | amount of Dmt-DALDA detected relative to sCT (dogs given uncoated capsules): nearly three times as much | time at which the maximum concentration was seen (dogs given uncoated capsules): 30 min | plasma peptide concentration normalized to a 1 mg dose (Dog 1, 0 min): 0 pg/mL | plasma peptide concentration normalized to a 1 mg dose (Dog 1, 15 min): 0 pg/mL | plasma peptide concentration normalized to a 1 mg dose (Dog 1, 30 min): 0 pg/mL | plasma peptide concentration normalized to a 1 mg dose (Dog 1, 45 min): 29440 pg/mL | plasma peptide concentration normalized to a 1 mg dose (Dog 1, 60 min): 25224 pg/mL | plasma peptide concentration normalized to a 1 mg dose (Dog 1, 75 min): 19768 pg/mL | plasma peptide concentration normalized to a 1 mg dose (Dog 1, 90 min): 19021 pg/mL | plasma peptide concentration normalized to a 1 mg dose (Dog 1, 105 min): 12324 pg/mL | plasma peptide concentration normalized to a 1 mg dose (Dog 1, 120 min): 8108 pg/mL | plasma peptide concentration normalized to a 1 mg dose (Dog 1, 135 min): 10714 pg/mL | plasma peptide concentration normalized to a 1 mg dose (Dog 1, 150 min): 9349 pg/mL | plasma peptide concentration normalized to a 1 mg dose (Dog 1, 165 min): 6743 pg/mL | plasma peptide concentration normalized to a 1 mg dose (Dog 1, 180 min): 5502 pg/mL | plasma peptide concentration normalized to a 1 mg dose (Dog 1, 195 min): 5008 pg/mL | plasma peptide concentration normalized to a 1 mg dose (Dog 1, 210 min): 3021 pg/mL | plasma peptide concentration normalized to a 1 mg dose (Dog 2 (delayed gastric emptying), 0 min): 0 pg/mL | plasma peptide concentration normalized to a 1 mg dose (Dog 2 (delayed gastric emptying), 15 min): 0 pg/mL | plasma peptide concentration normalized to a 1 mg dose (Dog 2 (delayed gastric emptying), 30 min): 0 pg/mL | plasma peptide concentration normalized to a 1 mg dose (Dog 2 (delayed gastric emptying), 45 min): 0 pg/mL | plasma peptide concentration normalized to a 1 mg dose (Dog 2 (delayed gastric emptying), 60 min): 0 pg/mL | plasma peptide concentration normalized to a 1 mg dose (Dog 2 (delayed gastric emptying), 75 min): 0 pg/mL | plasma peptide concentration normalized to a 1 mg dose (Dog 2 (delayed gastric emptying), 90 min): 0 pg/mL | plasma peptide concentration normalized to a 1 mg dose (Dog 2 (delayed gastric emptying), 105 min): 0 pg/mL | plasma peptide concentration normalized to a 1 mg dose (Dog 2 (delayed gastric emptying), 120 min): 0 pg/mL | plasma peptide concentration normalized to a 1 mg dose (Dog 2 (delayed gastric emptying), 135 min): 0 pg/mL | plasma peptide concentration normalized to a 1 mg dose (Dog 2 (delayed gastric emptying), 150 min): 0 pg/mL | plasma peptide concentration normalized to a 1 mg dose (Dog 2 (delayed gastric emptying), 165 min): 0 pg/mL | plasma peptide concentration normalized to a 1 mg dose (Dog 2 (delayed gastric emptying), 180 min): 0 pg/mL | plasma peptide concentration normalized to a 1 mg dose (Dog 2 (delayed gastric emptying), 195 min): 0 pg/mL | plasma peptide concentration normalized to a 1 mg dose (Dog 2 (delayed gastric emptying), 210 min): 0 pg/mL | plasma peptide concentration normalized to a 1 mg dose (Dog 3, 0 min): 0 pg/mL | plasma peptide concentration normalized to a 1 mg dose (Dog 3, 15 min): 0 pg/mL | plasma peptide concentration normalized to a 1 mg dose (Dog 3, 30 min): 0 pg/mL
